# Read-outs that look alike come from different tables or passages of the source.
# Assays:
# [1] = Acute toxicity on the male rat, p.o. (Table I); settings: in vivo, po
# Description: The acute toxicity of compounds I to VI was determined on the male rat (Table I).
# [2] = system: cholesterol and triglycerides; assay: Hypocholesterolemiating and hypolipemiating activity in normolipemiating rats (Table III); assay type: in vivo; settings: rat, gastric probe, equivalent of 75 mg/kg clofibrate every 12 hours, 10 days; for Triglycerides: untreated 1.13; for Cholesterol: untreated 90.79; for Cholesterol, decrease / Triglycerides, decrease: versus untreated
# Description: Groups of 10 normolipemiating rats were treated for 10 days, by gastric probe, with the equivalent of 75 mg/kg of clofibrate, administered every 12 hours. After 10 days, 12 hours after the last administration, they were sacrificed and the cholesterol and triglycerides analysed (Table III).
# [3] = comparison value given in text, no source or test printed; cited from earlier work
SMILES,LD50 [1],Triglycerides [2],Cholesterol [2],"Cholesterol, decrease [2]","Triglycerides, decrease [2]",LD50 [3]
"CC(=O)Oc1ccccc1C(=O)OC1C(OC(=O)c2ccccc2OC(C)=O)C(OC(=O)C(C)(C)Oc2ccc(Cl)cc2)C(OC(=O)C(C)(C)Oc2ccc(Cl)cc2)C(OC(=O)C(C)(C)Oc2ccc(Cl)cc2)C1OC(=O)C(C)(C)Oc1ccc(Cl)cc1 (stereo not drawn) [Compound I, 1,2-di-(acetylsalicyl)-3,4,5,6-tetra-(2-p-chlorophenoxy-2-methylpropionyl)-meso-inositol]",> 5000 mg/kg,0.96 mm mole/l.,78.25 mg/100 ml,14%,15%,–
"CC(=O)Oc1ccccc1C(=O)OC(COC(=O)C(C)(C)Oc1ccc(Cl)cc1)COC(=O)C(C)(C)Oc1ccc(Cl)cc1 [Compound II, 1,3-di-(2-p-chlorophenoxy-2-methylpropionyloxy)-2-(acetylsalicyloxy)-propane]",> 7500 mg/kg,0.92 mm mole/l.,73.90 mg/100 ml,19%,19%,–
"CC(=O)Oc1ccccc1C(=O)OCC(COC(=O)C(C)(C)Oc1ccc(Cl)cc1)OC(=O)C(C)(C)Oc1ccc(Cl)cc1 (stereo not drawn) [Compound III, 3-(acetylsalicyloxy)-1,2-di-(2-p-chlorophenoxy-2-methylpropionyloxy)-propane]",> 6200 mg/kg,0.91 mm mole/l.,75.63 mg/100 ml,17%,19%,–
"CC(=O)Oc1ccccc1C(=O)OCC(COC(=O)C(C)(C)Oc1ccc(Cl)cc1)OC(C)=O (stereo not drawn) [Compound IV, 1-(acetylsalicyloxy)-3-(2-p-chlorophenoxy-2-methylpropionyloxy)-2-acetoxy-propane]",> 5000 mg/kg,0.97 mm mole/l.,72.12 mg/100 ml,21%,14%,–
"CC(=O)Oc1ccccc1C(=O)OCCOC(=O)C(C)(C)Oc1ccc(Cl)cc1 [Compound VI, 1-(acetylsalicyloxy)-2-(2-p-chlorophenoxy-2-methylpropionyloxy)-ethane]",> 6000 mg/kg,0.83 mm mole/l.,67.34 mg/100 ml,26%,27%,–
CC(=O)Oc1ccccc1C(=O)OCC(COC(=O)C(C)(C)Oc1ccc(Cl)cc1)OS(=O)(=O)O (stereo not drawn) [Compound V],> 5000 mg/kg,0.89 mm mole/l.,68.38 mg/100 ml,25%,21%,–
CC(=O)Oc1ccccc1C(=O)O [acetylsalicylic acid],–,–,–,–,–,1750 mg/kg
"CCOC(=O)C(C)(C)Oc1ccc(Cl)cc1 [clofibrate, reference compound]",–,0.83 mm mole/l.,65.24 mg/100 ml,28%,27%,1200 mg/kg
